Experimental findings from the supplement of paper PMC10307832 are described below.

What all share (assay): relative viability (nuclei count vs DMSO), 5 days (fraction); higher = more cells survive
Compound in test [1]: CC1=NN=C(O1)C2=NN=C(C=C2)N3CCC(CC3)OC4=C(C=CC(=C4)F)Cl + C[C@@H](Oc1cc(-c2cnn(C3CCNCC3)c2)cnc1N)c1c(Cl)ccc(F)c1Cl [Crizotinib] (partner 1 µM)
A digest of the protocol: (§1)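 A single step with final 0.05% Triton X-100, 1% formaldehyde and 1 ug/ml Hoechst fixed the cells and stained nuclei 5 days after treatment. Lung cancer cell lines in 1536-well plates had been treated by pin tool the day after seeding with one drug alone or a fixed anchor-drug dose plus five library-drug doses (not always all listed) in √10 steps, and nuclei were counted on 4× images. Relative viability is the ratio of nuclei in treated wells to nuclei in vehicle wells, taken as the median of duplicate plates.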

Compound in test [2]: CC1=NN=C(O1)C2=NN=C(C=C2)N3CCC(CC3)OC4=C(C=CC(=C4)F)Cl + CC(=O)Nc1cccc(-n2c(=O)n(C3CC3)c(=O)c3c(Nc4ccc(I)cc4F)n(C)c(=O)c(C)c32)c1 [Trametinib] (partner 0.02 µM)
A digest of the protocol: as §1

Compound in test [3]: CC(C)C[C@@H](C(=O)N[C@H](C(=O)OC1CCCC1)c1ccccc1)[C@H](O)C(=O)NO [Tosedostat] + O=C(c1cc(Cc2n[nH]c(=O)c3ccccc23)ccc1F)N1CCN(C(=O)C2CC2)CC1 [Olaparib] (partner 8 µM)
The procedure, abridged:
as §1

Compound in test [4]: CC1=NN=C(O1)C2=NN=C(C=C2)N3CCC(CC3)OC4=C(C=CC(=C4)F)Cl + COc1cccc2cc(-c3nc([C@H]4CC[C@H](C(=O)O)CC4)n4ncnc(N)c34)[nH]c12 [OSI-027] (partner 0.5 µM)
The procedure, abridged:
as §1

On to NCI-H520, for which the relative viability in test [1] (first compound 0.253 µM) was 0.692; in test [1] (first compound 0.8 µM) it was 0.707; in test [1] (first compound 2.53 µM), 0.694; in test [1] (first compound 8 µM) it was 0.632; in test [2] (first compound 0.253 µM), 0.656; in test [2] (first compound 0.8 µM), 0.578. In addition, the relative viability in test [2] (first compound 2.53 µM) stood at 0.648; in test [2] (first compound 8 µM), 0.475; in test [3] (first compound 0.02 µM), 0.402; in test [3] (first compound 0.06325 µM), 0.362; in test [3] (first compound 0.2 µM) it was 0.293; in test [3] (first compound 0.6325 µM) it was 0.301. Further, the relative viability in test [3] (first compound 2 µM) was 0.304; in test [4] (first compound 0.253 µM) it was 0.336; in test [4] (first compound 2.53 µM), 0.337; in test [4] (first compound 8 µM), 0.244.

For NCI-H2085, the relative viability in test [1] (first compound 0.253 µM) is 0.76; in test [1] (first compound 0.8 µM), 0.656; in test [1] (first compound 2.53 µM), 0.821; in test [1] (first compound 8 µM), 0.683; in test [2] (first compound 0.253 µM), 0.326; in test [2] (first compound 0.8 µM), 0.514. In addition, the relative viability in test [2] (first compound 2.53 µM) was found to be 0.423; in test [2] (first compound 8 µM), 0.363; in test [3] (first compound 0.06325 µM), 0.86; in test [3] (first compound 0.2 µM) it was 0.784; in test [3] (first compound 0.6325 µM), 0.784; in test [3] (first compound 2 µM), 0.782. Besides, the relative viability in test [4] (first compound 0.253 µM) was determined as 0.594; in test [4] (first compound 2.53 µM) it was 0.732; in test [4] (first compound 8 µM) it was 0.49.

Take NCI-H1944: the relative viability stood at 0.448 in test [1] (first compound 0.253 µM); 0.54 in test [1] (first compound 0.8 µM); 0.566 in test [1] (first compound 2.53 µM); 0.529 in test [1] (first compound 8 µM); 0.339 in test [2] (first compound 0.253 µM); 0.324 in test [2] (first compound 0.8 µM). Also, the relative viability in test [2] (first compound 2.53 µM) stood at 0.37; in test [2] (first compound 8 µM), 0.342; in test [3] (first compound 0.02 µM), 0.429; in test [3] (first compound 0.06325 µM), 0.427; in test [3] (first compound 0.2 µM), 0.414; in test [3] (first compound 0.6325 µM) it was 0.355. The relative viability turned out to be 0.371 in test [3] (first compound 2 µM); 0.36 in test [4] (first compound 0.253 µM); 0.379 in test [4] (first compound 0.8 µM); 0.441 in test [4] (first compound 2.53 µM); 0.425 in test [4] (first compound 8 µM).

Take LXF-289: the relative viability was 0.612 in test [1] (first compound 0.253 µM); 0.593 in test [1] (first compound 0.8 µM); 0.623 in test [1] (first compound 2.53 µM); 0.545 in test [1] (first compound 8 µM); 0.603 in test [2] (first compound 0.253 µM); 0.582 in test [2] (first compound 0.8 µM). For the same cell line, the relative viability came out at 0.637 in test [2] (first compound 2.53 µM); 0.58 in test [2] (first compound 8 µM); 1.08 in test [3] (first compound 0.02 µM); 0.958 in test [3] (first compound 0.06325 µM); 1.07 in test [3] (first compound 0.2 µM); 0.969 in test [3] (first compound 0.6325 µM). The relative viability is 0.942 in test [3] (first compound 2 µM); 0.76 in test [4] (first compound 0.253 µM); 0.548 in test [4] (first compound 0.8 µM); 0.741 in test [4] (first compound 2.53 µM); 0.687 in test [4] (first compound 8 µM).

Turning to NCI-H596, the relative viability in test [1] (first compound 0.8 µM) was determined as 0.95; in test [1] (first compound 2.53 µM), 0.963; in test [1] (first compound 8 µM), 0.795; in test [2] (first compound 0.253 µM), 0.687; in test [2] (first compound 0.8 µM) it was 0.811; in test [2] (first compound 2.53 µM) it was 0.714. For the same cell line, the relative viability came to 0.692 in test [2] (first compound 8 µM); 0.66 in test [3] (first compound 0.02 µM); 0.662 in test [3] (first compound 0.06325 µM); 0.776 in test [3] (first compound 0.2 µM); 0.598 in test [3] (first compound 0.6325 µM); 0.49 in test [3] (first compound 2 µM). Moreover, the relative viability is 0.565 in test [4] (first compound 0.253 µM), 0.572 in test [4] (first compound 0.8 µM), 0.734 in test [4] (first compound 2.53 µM) and 0.698 in test [4] (first compound 8 µM).

Regarding NCI-H441, the relative viability came out at 0.615 in test [1] (first compound 0.253 µM); 0.428 in test [1] (first compound 0.8 µM); 0.541 in test [1] (first compound 2.53 µM); 0.36 in test [1] (first compound 8 µM); 0.343 in test [2] (first compound 0.253 µM); 0.327 in test [2] (first compound 0.8 µM). Moreover, the relative viability worked out at 0.462 in test [2] (first compound 2.53 µM); 0.409 in test [2] (first compound 8 µM); 0.711 in test [3] (first compound 0.02 µM); 0.533 in test [3] (first compound 0.06325 µM); 0.364 in test [3] (first compound 0.2 µM); 0.384 in test [3] (first compound 0.6325 µM). In addition, the relative viability in test [3] (first compound 2 µM) was determined as 0.322; in test [4] (first compound 0.253 µM) it was 0.579; in test [4] (first compound 0.8 µM), 0.347; in test [4] (first compound 2.53 µM), 0.603; in test [4] (first compound 8 µM), 0.52.

As to NCI-H2126, the relative viability in test [1] (first compound 0.253 µM) came to 0.921; in test [1] (first compound 0.8 µM), 0.858; in test [1] (first compound 2.53 µM) it was 0.891; in test [1] (first compound 8 µM) it was 0.841; in test [2] (first compound 0.253 µM), 0.528; in test [2] (first compound 0.8 µM), 0.532. Further, the relative viability in test [2] (first compound 2.53 µM) came to 0.504; in test [2] (first compound 8 µM) it was 0.486; in test [3] (first compound 0.02 µM) it was 0.897; in test [3] (first compound 0.06325 µM), 0.979; in test [3] (first compound 0.2 µM), 0.843; in test [3] (first compound 0.6325 µM) it was 0.769. Moreover, the relative viability in test [3] (first compound 2 µM) was 0.757; in test [4] (first compound 0.253 µM), 0.626; in test [4] (first compound 0.8 µM), 0.589; in test [4] (first compound 2.53 µM), 0.756; in test [4] (first compound 8 µM), 0.661.

Take HCC-15: the relative viability worked out at 0.42 in test [1] (first compound 0.253 µM); 0.405 in test [1] (first compound 0.8 µM); 0.374 in test [1] (first compound 2.53 µM); 0.36 in test [1] (first compound 8 µM); 0.404 in test [2] (first compound 0.253 µM); 0.399 in test [2] (first compound 0.8 µM). In addition, the relative viability turned out to be 0.376 in test [2] (first compound 2.53 µM); 0.385 in test [2] (first compound 8 µM); 0.799 in test [3] (first compound 0.02 µM); 0.723 in test [3] (first compound 0.06325 µM); 0.62 in test [3] (first compound 0.2 µM); 0.495 in test [3] (first compound 0.6325 µM). The relative viability in test [3] (first compound 2 µM) was 0.44; in test [4] (first compound 0.253 µM) it was 0.605; in test [4] (first compound 0.8 µM) it was 0.573; in test [4] (first compound 2.53 µM), 0.532; in test [4] (first compound 8 µM), 0.522.

For the cell line HCC-44, the relative viability in test [1] (first compound 0.253 µM) amounted to 0.451; in test [1] (first compound 0.8 µM), 0.392; in test [1] (first compound 2.53 µM), 0.431; in test [1] (first compound 8 µM) it was 0.373; in test [2] (first compound 0.253 µM) it was 0.608; in test [2] (first compound 0.8 µM), 0.994. For the same cell line, the relative viability turned out to be 0.945 in test [2] (first compound 2.53 µM); 0.856 in test [2] (first compound 8 µM); 0.965 in test [3] (first compound 0.02 µM); 0.984 in test [3] (first compound 0.06325 µM); 0.97 in test [3] (first compound 0.2 µM); 0.949 in test [3] (first compound 0.6325 µM). Moreover, the relative viability stood at 0.916 in test [3] (first compound 2 µM); 0.391 in test [4] (first compound 0.253 µM); 0.53 in test [4] (first compound 0.8 µM); 0.344 in test [4] (first compound 2.53 µM); 0.389 in test [4] (first compound 8 µM).
